The source of these data is patent US11612586B2, “Indole regulation of antigen presenting cells” (THE TEXAS A&M UNIVERSITY SYSTEM, priority 2016, dated 2023).

One test relates to Salmonella Typhimurium. Briefly: Salmonella invasion of HeLa epithelial cells (Salmonella exposed to indole). Type of test: cell-based.
Another test relates to B220 (CD45R). Nature of the test: B220 surface expression on BMDCs. Type of test: cell-based, mouse. The settings on record: BMDCs cultured from day 3 with indole (1 mM) or retinoic acid (1 μM). As to the method:
FIGS. 12A and 12B graphically illustrate that indole induces CCR9 and B220 on DCs. BMDCs were cultured in the presence of indole (1 mM), retinoic acid (1 μM), or DMF solvent control from day 3. On day 7, DCs were surface stained for expression of CCR9 and B220 and analyzed by flow cytometry. […] Mean of three independent experiments. * indicates p<0.05 for one-way ANOVA followed by Dunnett's post-test.
An indole-induced upregulation of the B220 (CD45R) antigen was also observed (FIGS. 12A and 12B), which is widely used to distinguish the plasmacytoid DC lineage and is believed to contribute to gut homing. However, more recently B220 has been reported to distinguish a DC subset more closely developmentally related to conventional rather than plasmacytoid DCs and a precursor to resident CD8+ and CD8− conventional DCs.

The next test relates to CCR7. Briefly: CCR7 surface expression on BMDCs. Type of test: cell-based, mouse. The method, then: FIG. 14 graphically illustrates that indole upregulates CCR7 expression in DCs. Flow cytometric analysis were performed on BMDCs cultured from day 3 in the presence of indole (1 mM), RA (1 uM), or DMF control and either surface stained for CCR7 expression directly or treated with LPS (1 ug/ml) for 24 hours prior to CCR7 staining.
Encountering maturation-inducing stimuli induces an upregulation of the chemokine receptor CCR7 in DCs. This shift promotes DC migration from peripheral tissues to the lymph nodes to present captured antigen. CCR7 expression facilitates this migration by rendering DCs sensitive to the chemoattractants, CCL19 and CCL21, which direct DCs to T cell areas of lymphoid tissues. […] Exposure to LPS is a DC-activating signal known to upregulate CCR7 expression in order to prime DCs for lymph node entry. Consistent with the literature, exposure to LPS for 24 hours further induced CCR7 expression in our BMDC cultures overall. Here, indole-conditioned DCs once again expressed a higher level of CCR7 expression compared to controls by over 3-fold in magnitude (FIG. 14).

The test system of another test is aldh1a2. Briefly: aldh1a2 gene expression in BMDCs, real-time qPCR. In kind it is cell-based, murine. The conditions noted are these: day 7 BMDCs cultured with indole from day 3. As to the method: FIG. 13A: BMDCs were cultured from day 3 with indole (1 mM), retinoic acid (1 uM), or DMF control were assayed for aldehyde dehydrogenase (ALDH) activity using the Aldefluor commercial kit. The ALDH inhibitor, DEAB reagent, was included to control for background fluorescence. Aldefluor fluorescence as a measure of ALDH activity was analyzed by flow cytometry. Data is reported as percentage of Aldefluor positive DCs (left panel) and corresponding MFI values (right panel). Individual dots represent data from five independent experiments. FIG. 13B: Gene expression of aldh1a2 was assayed by real-time qPCR in day 7 BMDCs cultured with indole from day 3. Gene expression was normalized to 18 s ribosomal RNA. Mean of three independent experiments. *p<0.05 by Student's t test.
Total RNA was extracted from BMDCs using RNeasy Mini Kit (Qiagen) and then retro-transcribed using cDNA Superscript Mastermix (Quanta). Quantitative PCR reactions were carried out in triplicate using Perfecta SYBR Green Fast Mix, Low ROX (Quanta).
Gene expression levels for each individual sample were normalized to 18 s. Mean relative gene expression was determined and differences were calculated using the 2^−ΔC(t) method.

The subject of the next test is Thy1.2+CD4+ T cells. Nature of the test: In vivo T cell activation by conditioned, OVA-loaded BMDCs transferred to B6-Thy1.1 mice. The conditions noted are these: mice receiving BMDCs conditioned with indole. Details: species or system mouse. The source says: FIGS. 17A-17C graphically illustrate that indole-conditioned DCs induce lower T cell activation overall but a greater proportion of Tregs in spleen compared to control. Naïve CD4+CD25− T cells from OT-II (Thy1.2) mice and OVA323-339-loaded BMDCs conditioned with indole, RA, or DMF were transferred to B6-Thy1.1 mice. After 7 days, tissues were harvested and stained for flow cytometric analysis. Data includes total expansion of Thy1.2+CD4+ T cells (FIG. 17A), percentage of Foxp3+CD4+ T cells of expanded T cells (FIG. 17B), and MFI of Foxp3+CD4+ T cells of expanded T cells (FIG. 17C). n=4 mice/group.
To address the functionality of indole DC-induced Tregs, an in vivo T cell activation system was employed. The pan T cell surface antigen, Thy1, has congenic alleles, Thy1.1 and Thy1.2, which can be used to differentiate donor and recipient T cells. Naïve CD4+CD25− T cells were purified from OT-II (Thy1.2) mice, then transferred them to recipient Thy1.1 mice. Indole-treated, OVA323-339 peptide-loaded BMDCs (Thy1.2) was subsequently transferred to the same recipient Thy1.1 mice. After five days, the recipient mice were sacrificed to assess activation of the transferred naïve T cells, which could only be activated by the transferred, peptide-loaded DCs and are identifiable by the Thy1.2 T cell surface antigen. Cellular populations from the spleen, mesenteric lymph nodes, and pooled distal lymph nodes (axial and inguinal), were examined limiting the analysis to CD4+ T cells bearing the Thy1.2 allele (donor-derived). Importantly, the DCs transferred without OVA peptide loading (negative control) induced virtually undetectable T cell activation. This confirms the specificity of the present model, ensuring that T cell activation in Thy1.2 T cells was solely due to interaction with our experimental BMDCs.
Naïve CD4+CD25− T cells from spleens and lymph nodes of OT-II mice were isolated by column purification as described above and resuspended in sterile Hanks Balanced Saline Solution (HBSS). […]

For another test, the system named is TLR4. Nature of the test: Surface TLR4 expression on DC2.4 and BMDC. The settings on record: DC2.4 and BMDC 18 hours indole, BMDC indole from day 3.

With `c1ccc2[nH]ccc2c1` [Indole, indole], the “decrease of Salmonella invasion of HeLa epithelial cells” value with Salmonella Typhimurium is given as 160 fold. For the same compound, the “B220 (CD45R) expression on BMDCs” value in the test with B220 (CD45R) was “upregulation”. The “CCR7 expression compared to controls” value with CCR7 (BMDCs, indole 1 mM from day 3, LPS for 24 hours) was “over 3 fold”. In the test on CCR7 (day 7 freshly harvested BMDCs, indole 1 mM from day 3), the “increase in CCR7 expression over RA or solvent controls” value was “approximately 5 fold”. Besides, the aldh1a2 expression entry with aldh1a2 is given as “inhibits”. For the same compound, in the test with Thy1.2+CD4+ T cells, the “Foxp3 mean fluorescence intensity of splenic Tregs” value was “higher mean fluorescence intensity” and the “Tregs in the spleen of newly activated T cells compared to RA-DCs or DMF-DCs” value is recorded as “two times more Tregs”. For the same compound, the “T cell expansion, less than controls” value in the test on Thy1.2+CD4+ T cells (spleen, mesenteric and distal lymph nodes) is “more than 2 fold”. For the same compound, the “surface TLR4 expression on DCs” value with TLR4 is recorded as “does not alter surface TLR4 expression”.
